Patent publication US12358951
Read-outs that look alike come from different tables or passages of the source.

Settings: amide bond, THF

SMILES: CC[C@@H]1CN(CC2CCCC2)[C@@H](C)C(=O)N(C)[C@@H](CC(C)C)C(=O)N[C@@H](C2CCCCC2)C(=O)N[C@@H](CNC(=O)OCc2ccccc2)C(=O)N[C@@H]([C@H](C)OCc2ccccc2)C(=O)N1
- ring closure, yield of all isomers (from CC[C@@H](N)CN(CC1CCCC1)[C@@H](C)C(=O)N(C)[C@@H](CC(C)C)C(=O)N[C@H](C(=O)N[C@@H](CNC(=O)OCc1ccccc1)C(=O)N[C@H](C(=O)O)[C@H](C)OCc1ccccc1)C1CCCCC1, HATU, DIPEA, 1.24 mM, 25.0 °C, 2.5 h): 45.7%

SMILES: CCCCCC[C@H]1OC[C@@H](C)NC(=O)[C@H](COC2CC3(C2)CN(C(=O)OC(C)(C)C)C3)NC(=O)[C@H](CNC(=O)OCc2ccccc2)NC(=O)[C@H](C2CCCCCC2)NC(=O)[C@H](CCC)N(C)C(=O)[C@@H]1C
- ring closure, yield of all isomers (from CCCCCC[C@@H](OC[C@@H](C)N)[C@@H](C)C(=O)N(C)[C@@H](CCC)C(=O)N[C@H](C(=O)N[C@@H](CNC(=O)OCc1ccccc1)C(=O)N[C@@H](COC1CC2(C1)CN(C(=O)OC(C)(C)C)C2)C(=O)O)C1CCCCCC1, HATU, DIPEA, 1.35 mM, 25.0 °C, 2.5 h): 39%

SMILES: CCCCCCN1C[C@@H](CCF)NC(=O)[C@H]([C@H](C)OCc2ccccc2)NC(=O)[C@H](CNC(=O)OCc2ccccc2)NC(=O)[C@H](C2CCCCC2)NC(=O)[C@H](CC(C)C)N(C)C(=O)[C@@H]1C
- ring closure, yield of all isomers (from CCCCCCN(C[C@H](N)CCF)[C@@H](C)C(=O)N(C)[C@@H](CC(C)C)C(=O)N[C@H](C(=O)N[C@@H](CNC(=O)OCc1ccccc1)C(=O)N[C@H](C(=O)O)[C@H](C)OCc1ccccc1)C1CCCCC1, HATU/DIPEA, 1.36 mM, 25.0 °C, 20.0 h): 43.4%

SMILES: CCCCCC[C@H]1OC[C@@H](C)NC(=O)[C@H](CNC(=O)OC(C)(C)C)NC(=O)[C@H](CNC(=O)OCc2ccccc2)NC(=O)[C@H](C2CCCCC2)NC(=O)[C@H](CC(C)C)N(C)C(=O)[C@@H]1C
- ring closure, yield of all isomers (from CCCCCC[C@@H](OC[C@@H](C)N)[C@@H](C)C(=O)N(C)[C@@H](CC(C)C)C(=O)N[C@H](C(=O)N[C@@H](CNC(=O)OCc1ccccc1)C(=O)N[C@@H](CNC(=O)OC(C)(C)C)C(=O)O)C1CCCCC1, HATU/DIPEA, 1.08 mM, 25.0 °C, 16.0 h): 55%

SMILES: CCCC[C@H]1C(=O)N(C)[C@@H](CC(C)C)C(=O)N[C@@H](C2CCCCC2)C(=O)N[C@@H](CNC(=O)OCc2ccccc2)C(=O)N[C@@H](COCCCNC(=O)OC(C)(C)C)C(=O)N[C@H](C)CN1CC1CC1
- ring closure, yield of all isomers (from CCCC[C@@H](C(=O)N(C)[C@@H](CC(C)C)C(=O)N[C@H](C(=O)N[C@@H](CNC(=O)OCc1ccccc1)C(=O)O)C1CCCCC1)N(CC1CC1)C[C@@H](C)NC(=O)[C@@H](N)COCCCNC(=O)OC(C)(C)C, HATU/DIPEA, 1.14 mM, 19.0 h): 30%
